Data taken from patent publication US12344603B2 (Genentech, Inc., priority 2020, dated 2025).
Counter-ions that a name gives are not always drawn.

Each compound was assayed against IRE1α (Homo sapiens (Human), UniProt O75460, D688N) (assay: IRE1α TR-FRET competition binding assay (IRE1α HTRF)). Conditions: TR-FRET competition binding to kinase domain of IRE1α.
In short: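 Competition of compounds against an Alexa fluor 647 ATP-site probe (2 nM final) for the His-tagged kinase domain (0.25 nM final), detected via 2 nM Eu anti-His antibody by TR-FRET, 665 and 615 nm emission. Protein–antibody premix 1 h, 4° C; reaction 1 h, room temperature, pH 7.5 HEPES buffer.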

Chain of IRE1α (O75460 547-977 D688N): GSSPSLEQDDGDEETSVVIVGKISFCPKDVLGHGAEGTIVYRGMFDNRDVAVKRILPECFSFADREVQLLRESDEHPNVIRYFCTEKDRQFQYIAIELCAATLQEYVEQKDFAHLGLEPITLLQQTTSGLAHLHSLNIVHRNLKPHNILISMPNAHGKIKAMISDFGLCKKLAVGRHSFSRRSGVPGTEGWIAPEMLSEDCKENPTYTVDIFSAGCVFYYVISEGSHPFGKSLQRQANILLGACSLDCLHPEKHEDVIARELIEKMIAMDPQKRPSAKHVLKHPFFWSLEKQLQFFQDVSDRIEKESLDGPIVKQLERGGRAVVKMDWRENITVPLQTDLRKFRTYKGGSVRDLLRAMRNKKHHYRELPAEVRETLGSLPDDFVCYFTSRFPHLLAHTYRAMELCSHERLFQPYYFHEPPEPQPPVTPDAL

| Structure (SMILES) | IC50 |
| --- | --- |
| CC(C)n1c(=O)c(-c2ccc(NS(=O)(=O)c3ccccc3C#N)c(F)c2)nc2cnc(N[C@H]3CC[C@H](N(C)C)CC3)nc21 [Compound 190, 2-Cyano-N-(4-(2-(((1r,4r)-4-(dimethylamino)cyclohexyl)amino)-8-isopropyl-7-oxo-7,8-dihydropteridin-6-yl)-2-fluorophenyl)benzenesulfonamide] | 0.18 nM |
| CC(C)n1c(=O)c(-c2ccc(NS(=O)(=O)c3cccnc3)c(F)c2)nc2cnc(N[C@H]3CC[C@H](N(C)C)CC3)nc21 [Compound 191, N-(4-(2-(((1r,4r)-4-(Dimethylamino)cyclohexyl)amino)-8-isopropyl-7-oxo-7,8-dihydropteridin-6-yl)-2-fluorophenyl)pyridine-3-sulfonamide hydrochloride] | 0.25 nM |
| CC(C)n1c(=O)c(-c2ccc(NS(=O)(=O)CCC(F)(F)F)c(F)c2F)cc2cnc(N[C@H]3CC[C@H](N(C)C)CC3)nc21 [Compound 197, N-(4-(2-(((1,4-trans)-4-(Dimethylamino)cyclohexyl)amino)-8-isopropyl-7-oxo-7,8-dihydropyrido[2,3-d]pyrimidin-6-yl)-2,3-difluorophenyl)-3,3,3-trifluoropropane-1-sulfonamide] | 0.26 nM |
| CC(C)n1c(=O)c(-c2ccc(NS(=O)(=O)CCC(F)(F)F)c(F)c2)cc2cnc(N[C@H]3CC[C@H](N4CCCC4)CC3)nc21 [Compound 199, 3,3,3-Trifluoro-N-(2-fluoro-4-(8-isopropyl-7-oxo-2-(((1,4-trans)-4-(pyrrolidin-1-yl)cyclohexyl)amino)-7,8-dihydropyrido[2,3-d]pyrimidin-6-yl)phenyl)propane-1-sulfonamide] | 0.25 nM |
| CC(C)n1c(=O)c(-c2ccc(NS(=O)(=O)CCC(F)(F)F)c(F)c2)cc2cnc(NC3CCN(C)CC3)nc21 [Compound 200, 3,3,3-Trifluoro-N-(2-fluoro-4-(8-isopropyl-2-((1-methylpiperidin-4-yl)amino)-7-oxo-7,8-dihydropyrido[2,3-d]pyrimidin-6-yl)phenyl)propane-1-sulfonamide formate] | 20 nM |
| CC(C)n1c(=O)c(-c2ccc(NS(=O)(=O)CCC(F)(F)F)c(F)c2)cc2cnc(NC3CCNCC3)nc21 [Compound 201, 3,3,3-Trifluoro-N-(2-fluoro-4-(8-isopropyl-7-oxo-2-(piperidin-4-ylamino)-7,8-dihydropyrido[2,3-d]pyrimidin-6-yl)phenyl)propane-1-sulfonamide] | 8.7 nM |
| CC(C)n1c(=O)c(-c2ccc(NS(=O)(=O)CCC(F)(F)F)c(F)c2)cc2cnc(N[C@H]3CC[C@H](N(C)CC4COC4)CC3)nc21 [Compound 204, 3,3,3-Trifluoro-N-(2-fluoro-4-(8-isopropyl-2-(((1,4-trans)-4-(methyl(oxetan-3-ylmethyl)amino)cyclohexyl)amino)-7-oxo-7,8-dihydropyrido[2,3-d]pyrimidin-6-yl)phenyl)propane-1-sulfonamide] | 1 nM |
| CC(C)n1c(=O)c(-c2ccc(NS(=O)(=O)CCC(F)(F)F)c(F)c2)cc2cnc(N[C@H]3CC[C@H](N(C)C4CC4)CC3)nc21 [Compound 207, N-(4-(2-(((1,4-trans)-4-(Cyclopropyl(methyl)amino)cyclohexyl)amino)-8-isopropyl-7-oxo-7,8-dihydropyrido[2,3-d]pyrimidin-6-yl)-2-fluorophenyl)-3,3,3-trifluoropropane-1-sulfonamide] | 0.21 nM |
| O=c1c(-c2ccc(NS(=O)(=O)Cc3ccccc3F)c(F)c2)cc2cnc(N[C@@H]3CNC[C@@H](F)C3)nc2n1CCO [Compound 208, N-[2-Fluoro-4-[2-[[(3S,5S)-5-fluoro-3-piperidyl]amino]-8-(2-hydroxyethyl)-7-oxo-pyrido[2,3-d]pyrimidin-6-yl]phenyl]-1-(2-fluorophenyl)methanesulfonamide] | 1.2 nM |
| CC(C)n1c(=O)c(-c2ccc(NS(=O)(=O)CCC(F)(F)F)c(F)c2)cc2cnc(N[C@H]3CC[C@H](N(C)CC4CCO4)CC3)nc21 (stereo partly drawn) [Compound 209, 3,3,3-Trifluoro-N-(2-fluoro-4-(8-isopropyl-2-(((1,4-trans)-4-(methyl(oxetan-2-ylmethyl)amino)cyclohexyl)amino)-7-oxo-7,8-dihydropyrido[2,3-d]pyrimidin-6-yl)phenyl)propane-1-sulfonamide] | 0.19 nM |
| COCCN(CCOC)[C@H]1CC[C@H](Nc2ncc3cc(-c4ccc(NS(=O)(=O)CCC(F)(F)F)c(F)c4)c(=O)n(C(C)C)c3n2)CC1 [Compound 210, N-(4-(2-(((1,4-trans)-4-(Bis(2-methoxyethyl)amino)cyclohexyl)amino)-8-isopropyl-7-oxo-7,8-dihydropyrido[2,3-d]pyrimidin-6-yl)-2-fluorophenyl)-3,3,3-trifluoropropane-1-sulfonamide] | 0.25 nM |
| CC(C)n1c(=O)c(-c2ccc(NS(=O)(=O)CCC(F)(F)F)c(F)c2)cc2cnc(N[C@H]3CC[C@H](N4CC5(COC5)C4)CC3)nc21 [Compound 212, N-(4-(2-(((1,4-trans)-4-(2-Oxa-6-azaspiro[3.3]heptan-6-yl)cyclohexyl)amino)-8-isopropyl-7-oxo-7,8-dihydropyrido[2,3-d]pyrimidin-6-yl)-2-fluorophenyl)-3,3,3-trifluoropropane-1-sulfonamide] | 0.24 nM |

Continued by falling IC50, values first:

| IC50 | Structure (SMILES) |
| --- | --- |
| 0.41 nM | CC(C)n1c(=O)c(-c2ccc(NS(=O)(=O)CCC(F)(F)F)c(F)c2)cc2cnc(N[C@H]3CC[C@H](N4CCC4)CC3)nc21 [Compound 198, N-(4-(2-(((1,4-trans)-4-(Azetidin-1-yl)cyclohexyl)amino)-8-isopropyl-7-oxo-7,8-dihydropyrido[2,3-d]pyrimidin-6-yl)-2-fluorophenyl)-3,3,3-trifluoropropane-1-sulfonamide formate] |
| 0.31 nM | Cc1nc(NS(=O)(=O)c2ccccc2C#N)ccc1-c1nc2cnc(N[C@H]3CC[C@H](N(C)CCF)CC3)nc2n(C(C)C)c1=O [Compound 194, 2-Cyano-N-(5-(2-(((1r,4r)-4-((2-fluoroethyl)(methyl)amino)cyclohexyl)amino)-8-isopropyl-7-oxo-7,8-dihydropteridin-6-yl)-6-methylpyridin-2-yl)benzenesulfonamide] |
| 0.29 nM | Cc1nc(NS(=O)(=O)c2ccccc2Cl)ccc1-c1nc2cnc(N[C@H]3CC[C@H](N(C)CCF)CC3)nc2n(C(C)C)c1=O [Compound 195, 2-Chloro-N-(5-(2-(((1r,4r)-4-((2-fluoroethyl)(methyl)amino)cyclohexyl)amino)-8-isopropyl-7-oxo-7,8-dihydropteridin-6-yl)-6-methylpyridin-2-yl)benzenesulfonamide] |
| 0.17 nM | CC(C)n1c(=O)c(-c2ccc(NS(=O)(=O)CCC(F)(F)F)c(F)c2)cc2cnc(N[C@H]3CC[C@H](N(C)C4COC4)CC3)nc21 [Compound 206, 3,3,3-Trifluoro-N-(2-fluoro-4-(8-isopropyl-2-(((1,4-trans)-4-(methyl(oxetan-3-yl)amino)cyclohexyl)amino)-7-oxo-7,8-dihydropyrido[2,3-d]pyrimidin-6-yl)phenyl)propane-1-sulfonamide] |
| 0.14 nM | CCN(C)[C@H]1CC[C@H](Nc2ncc3cc(-c4ccc(NS(=O)(=O)CCC(F)(F)F)c(F)c4)c(=O)n(C(C)C)c3n2)CC1 [Compound 205, N-(4-(2-(((1,4-trans)-4-(Ethyl(methyl)amino)cyclohexyl)amino)-8-isopropyl-7-oxo-7,8-dihydropyrido[2,3-d]pyrimidin-6-yl)-2-fluorophenyl)-3,3,3-trifluoropropane-1-sulfonamide] |
